In PubChem BioAssay AID256 (DTP/NCI, 2004) one finds T/C data, which are given here for 21 molecules.

SMILES strings stand for the structures. Values joined by “and” are separate entries in the source; they are usually repeats but may differ in a detail not shown here. Equal values may be shown once. Inconclusive results and toxic doses are left out.

The experiment relates to CD2F1 mice, L1210 leukemia ip, survival T/C. Nature of the experiment: NCI In Vivo Anticancer Drug Screen. Data for tumor model L1210 Leukemia (intraperitoneal) in CD2F1 (CDF1) mice. The following applies: higher = longer survival. An outline of the steps: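 Each value reflects a quotient of treated over vehicle control outcomes in mice with a transplanted tumor.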
Setting [1] is: endpoint: mean survival time, dose: 100.0 mg/kg/injection, schedule: Q01DX001 (ip), vehicle: saline.
Where [2] appears, read: endpoint: mean survival time, dose: 200.0 mg/kg/injection, schedule: Q01DX001 (ip), vehicle: saline.
Setting [3] is: endpoint: mean survival time, dose: 400.0 mg/kg/injection, schedule: Q01DX001 (ip), vehicle: saline.
Where [4] appears, read: endpoint: mean survival time, dose: 100.0 mg/kg/injection, schedule: Q04DX003 (ip), vehicle: saline with Tween-80.
Where [5] appears, read: endpoint: mean survival time, dose: 400.0 mg/kg/injection, schedule: Q04DX003 (ip), vehicle: saline with Tween-80.
[6] abbreviates: endpoint: mean survival time, dose: 50.0 mg/kg/injection, schedule: Q01DX009 (ip), vehicle: saline with Tween-80.
The mark [7] stands for this setting: endpoint: mean survival time, dose: 100.0 mg/kg/injection, schedule: Q01DX009 (ip), vehicle: saline with Tween-80.
Where [8] appears, read: endpoint: mean survival time, dose: 200.0 mg/kg/injection, schedule: Q01DX009 (ip), vehicle: saline with Tween-80.
[9] abbreviates: endpoint: mean survival time, dose: 200.0 mg/kg/injection, schedule: Q04DX003 (ip), vehicle: saline with Tween-80.
[10] abbreviates: endpoint: mean survival time, dose: 400.0 mg/kg/injection, schedule: Q01DX009 (ip), vehicle: saline with Tween-80.
Setting [11] is: endpoint: mean survival time, dose: 100.0 mg/kg/injection, schedule: Q01DX001 (ip), vehicle: saline with Tween-80.

Consider `COc1nc(NC2OC(CO)C(O)C(O)C2O)c(C(C)=O)c(=O)[nH]1` (stereo not given), for which the T/C runs as follows: (endpoint: median survival time, dose: 12.5 mg/kg/injection, schedule: Q01DX005 (ip), vehicle: saline) 97 % of control; (endpoint: median survival time, dose: 25.0 mg/kg/injection, schedule: Q01DX005 (ip), vehicle: saline) 98 % of control; (endpoint: median survival time, dose: 50.0 mg/kg/injection, schedule: Q01DX005 (ip), vehicle: saline) 98 % of control; (endpoint: median survival time, dose: 100.0 mg/kg/injection, schedule: Q01DX005 (ip), vehicle: saline) 97 % of control; (endpoint: median survival time, dose: 200.0 mg/kg/injection, schedule: Q01DX005 (ip), vehicle: saline) 98 % of control.
As to `COc1ccc(NC2=C(C)C(=O)C3=C(C2=O)[C@H](COC(N)=O)[C@]2(OC)[C@@H]4N[C@@H]4CN32)cc1`, the T/C (endpoint: mean survival time, dose: 1.5 mg/kg/injection, schedule: Q01DX001 (ip), vehicle: water) is 107 % of control; the T/C (endpoint: mean survival time, dose: 3.0 mg/kg/injection, schedule: Q01DX001 (ip), vehicle: water) was 118 % of control and 110 % of control; the T/C (endpoint: mean survival time, dose: 6.0 mg/kg/injection, schedule: Q01DX001 (ip), vehicle: water) was 117 % of control and 111 % of control; the T/C (endpoint: mean survival time, dose: 12.0 mg/kg/injection, schedule: Q01DX001 (ip), vehicle: water) is 124 % of control; the T/C (endpoint: mean survival time, dose: 24.0 mg/kg/injection, schedule: Q01DX001 (ip), vehicle: water) is 153 % of control; the T/C (endpoint: mean survival time, dose: 48.0 mg/kg/injection, schedule: Q01DX001 (ip), vehicle: water) is 124 % of control.
Turning to `Cc1ccc2nc(-c3ccc(NC(=O)c4ccc(C(=O)Nc5ccc(-c6nc7ccc(C)cc7s6)cc5)cc4)cc3)sc2c1`, the T/C reads like this: under setting [1], 89 % of control; under setting [2], 89 % of control; under setting [3], 86 % of control.
For the molecule `O=CNc1cccc2ccc3c4ccccc4ccc3c12`, the T/C by setting is: under setting [4], 98 % of control; under setting [5], 91 % of control.
As for `C=C1C(=O)OCC2C(C(=O)O)=CC3C(C)C(C)=CC123` (stereo not given), the T/C (endpoint: mean survival time, dose: 20.0 mg/kg/injection, schedule: Q04DX003 (ip), vehicle: saline with Tween-80) was 109 % of control; the T/C (endpoint: mean survival time, dose: 40.0 mg/kg/injection, schedule: Q04DX003 (ip), vehicle: saline with Tween-80) was 121 % of control; the T/C (endpoint: mean survival time, dose: 80.0 mg/kg/injection, schedule: Q04DX003 (ip), vehicle: saline with Tween-80) is 120 % of control.
For `COc1cc2ccnc(/C=N\NC(N)=S)c2cc1OC`, the T/C is, setting by setting: (endpoint: mean survival time, dose: 25.0 mg/kg/injection, schedule: Q01DX009 (ip), vehicle: saline with Tween-80) 93 % of control; under setting [6], 96 % of control; under setting [7], 96 % of control; under setting [8], 95 % of control.
For `COc1ccccc1NC(=O)Nc1cccc(Cl)c1`, the T/C by setting is: under setting [7], 95 % of control; under setting [4], 94 % of control; under setting [8], 93 % of control; under setting [9], 97 % of control; under setting [10], 88 % of control; under setting [5], 86 % of control.
As to `O=C(O)CCCCCCCCCCCCCCCCCCCCC(=O)O`, the T/C by setting is: under setting [4], 87 % of control; under setting [9], 102 % of control; under setting [5], 87 % of control.
`O=C1OCC2(C(=O)O)C(=O)OCC12` (stereo not given): the T/C is 97 % of control (endpoint: mean survival time, dose: 50.0 mg/kg/injection, schedule: Q01DX001 (ip), vehicle: saline); 106 % of control under setting [1]; 106 % of control under setting [2]; 101 % of control under setting [3].
As to `CC(Cc1ccccc1)NC(C)Cc1ccccc1` (stereo not given), the T/C under setting [4] is 98 % of control and the T/C under setting [9] is 102 % of control.
For `Cc1cc(=O)c(C#N)c(-c2ccccc2)[nH]1`, the T/C by setting is: (endpoint: mean survival time, dose: 100.0 mg/kg/injection, schedule: Q04DX002 (ip), vehicle: saline with Tween-80) 96 % of control; (endpoint: mean survival time, dose: 200.0 mg/kg/injection, schedule: Q04DX002 (ip), vehicle: saline with Tween-80) 100 % of control; (endpoint: mean survival time, dose: 400.0 mg/kg/injection, schedule: Q04DX002 (ip), vehicle: saline with Tween-80) 87 % of control.
For `CCC(C)C(C(=O)O)c1ccccc1` (stereo not given), the T/C was 104 % of control under setting [7], 101 % of control under setting [8] and 98 % of control under setting [10].
For the molecule `C[Si](C)(C)Oc1c(Cl)cc(Cl)cc1Cl`, the T/C under setting [7] was 100 % of control, the T/C under setting [8] is 91 % of control and the T/C under setting [10] was 87 % of control.
For `C#CCP(=O)(OCC)OCC`, the T/C by setting is: (endpoint: mean survival time, dose: 100.0 mg/kg/injection, schedule: Q01DX009 (ip), vehicle: saline) 95 % of control; (endpoint: mean survival time, dose: 200.0 mg/kg/injection, schedule: Q01DX009 (ip), vehicle: saline) 95 % of control; (endpoint: mean survival time, dose: 400.0 mg/kg/injection, schedule: Q01DX009 (ip), vehicle: saline) 94 % of control.
In the case of `COc1cc(OC)c(NC(=O)Nc2ccc(C(=O)O)cc2)cc1Cl`, the T/C is, setting by setting: under setting [6], 89 % of control; under setting [7], 100 % of control; under setting [8], 96 % of control.
`C(=N\N=C\c1ccco1)/c1ccco1`: the T/C (endpoint: mean survival time, dose: 25.0 mg/kg/injection, schedule: Q01DX001 (ip), vehicle: saline with Tween-80) is 87 % of control; the T/C (endpoint: mean survival time, dose: 50.0 mg/kg/injection, schedule: Q01DX001 (ip), vehicle: saline with Tween-80) was 97 % of control; the T/C under setting [11] is 100 % of control; the T/C under setting [4] is 97 % of control; the T/C under setting [9] is 101 % of control.
With `Cc1cc(C)[nH]c(=S)n1.[Pd]`, the T/C is, setting by setting: (endpoint: mean survival time, dose: 3.12 mg/kg/injection, schedule: Q04DX003 (ip), vehicle: saline) 97 % of control; (endpoint: mean survival time, dose: 6.25 mg/kg/injection, schedule: Q04DX003 (ip), vehicle: saline) 102 % of control; (endpoint: mean survival time, dose: 12.5 mg/kg/injection, schedule: Q04DX003 (ip), vehicle: saline) 100 % of control; (endpoint: mean survival time, dose: 25.0 mg/kg/injection, schedule: Q04DX003 (ip), vehicle: saline) 103 % of control; (endpoint: mean survival time, dose: 50.0 mg/kg/injection, schedule: Q04DX003 (ip), vehicle: saline) 102 % of control; (endpoint: mean survival time, dose: 100.0 mg/kg/injection, schedule: Q04DX003 (ip), vehicle: saline) 105 % of control. Also, the T/C (endpoint: mean survival time, dose: 200.0 mg/kg/injection, schedule: Q04DX003 (ip), vehicle: saline) was 102 % of control.
Regarding `Cc1ccc(C)c(NC(=O)c2cccc(Cl)c2)c1`, the T/C under setting [7] was 89 % of control; the T/C under setting [4] was 94 % of control; the T/C under setting [8] was 94 % of control; the T/C under setting [9] is 94 % of control; the T/C under setting [10] is 102 % of control; the T/C under setting [5] is 94 % of control.
With `C/C=C/CC1CCCCC1C` (stereo not given), the T/C is 96 % of control under setting [6], 96 % of control under setting [7] and 108 % of control under setting [8].
As to `CCCCN(N=O)C(=O)Nc1ccc(C2CC(=O)N(C)C2=O)cc1` (stereo not given), the T/C was 103 % of control (endpoint: mean survival time, dose: 12.5 mg/kg/injection, schedule: Q01DX001 (ip), vehicle: distilled water + Tween-80); 99 % of control (endpoint: mean survival time, dose: 25.0 mg/kg/injection, schedule: Q01DX001 (ip), vehicle: distilled water + Tween-80); 112 % of control (endpoint: mean survival time, dose: 50.0 mg/kg/injection, schedule: Q01DX001 (ip), vehicle: distilled water + Tween-80); 112 % of control (endpoint: mean survival time, dose: 100.0 mg/kg/injection, schedule: Q01DX001 (ip), vehicle: distilled water + Tween-80); 120 % of control (endpoint: mean survival time, dose: 200.0 mg/kg/injection, schedule: Q01DX001 (ip), vehicle: distilled water + Tween-80).
In the case of `O=C1C(O)=Cc2coc(=O)c3ccc(-c4ccccc4)c1c23`, the T/C under setting [11] was 91 % of control.
